How the values were obtained:
[1] = molecular target: T1, Cholecystokinin receptor type A (Rattus norvegicus, UniProt P30551)
T1 sequence (P30551 whole entry): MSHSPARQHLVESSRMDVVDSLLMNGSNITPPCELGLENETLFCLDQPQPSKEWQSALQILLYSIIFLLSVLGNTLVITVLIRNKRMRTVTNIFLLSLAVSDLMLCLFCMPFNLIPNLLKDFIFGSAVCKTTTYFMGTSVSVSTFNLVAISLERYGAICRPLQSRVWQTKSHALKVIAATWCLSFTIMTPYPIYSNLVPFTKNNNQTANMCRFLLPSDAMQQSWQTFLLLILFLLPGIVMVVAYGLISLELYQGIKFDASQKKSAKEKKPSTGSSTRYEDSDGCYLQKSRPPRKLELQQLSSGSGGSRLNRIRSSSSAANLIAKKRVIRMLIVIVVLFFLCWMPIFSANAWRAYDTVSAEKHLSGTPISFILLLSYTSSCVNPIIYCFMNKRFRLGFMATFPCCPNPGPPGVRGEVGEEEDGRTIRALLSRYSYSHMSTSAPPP
Description: Compound measured for half-maximal inhibition of specific binding of [125I]-Bolton Hunter CCK-26-33 to CCK-A receptor in the rat pancreas.

[2] = molecular target: T2, Gastrin/cholecystokinin type B receptor (Mus musculus, UniProt P56481); assay: Compound measured for half-maximal inhibition of specific binding of [125I]bolton Hunter CCK-26-33 to CCK-B receptor in the mouse cerebral cortex.; format: tissue-based
T2 sequence (P56481 whole entry): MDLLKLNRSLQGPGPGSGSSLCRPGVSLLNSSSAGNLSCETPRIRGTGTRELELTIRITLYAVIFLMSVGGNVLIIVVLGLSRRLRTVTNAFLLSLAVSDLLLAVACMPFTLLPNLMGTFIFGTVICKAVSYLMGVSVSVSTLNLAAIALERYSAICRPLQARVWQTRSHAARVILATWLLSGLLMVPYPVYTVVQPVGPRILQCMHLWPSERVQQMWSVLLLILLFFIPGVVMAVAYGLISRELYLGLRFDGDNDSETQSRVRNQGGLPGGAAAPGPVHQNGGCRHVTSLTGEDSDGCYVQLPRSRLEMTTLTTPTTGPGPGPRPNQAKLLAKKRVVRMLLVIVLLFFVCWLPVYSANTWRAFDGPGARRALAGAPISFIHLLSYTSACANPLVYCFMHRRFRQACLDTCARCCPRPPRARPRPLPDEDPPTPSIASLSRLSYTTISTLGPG

Row | SMILES | IC50 [1] | IC50 [2]
1 | O=C(O)C[C@@H](Cc1ccccc1)NC(=O)/C(=C/c1c[nH]c2ccccc12)NC(=O)OC1C2CC3CC(C2)CC1C3 (some centres undefined) | 3.7 nM | 99 nM
2 | O=C(O)C[C@@H](Cc1ccccc1)NC(=O)C(=Cc1c[nH]c2ccccc12)NC(=O)OC1C2CC3CC(C2)CC1C3 (some centres undefined) | 3.9 nM | 60 nM
3 | O=C(O)C[C@H](Cc1ccccc1)NC(=O)/C(=C/c1c[nH]c2ccccc12)NC(=O)OC1C2CC3CC(C2)CC1C3 (some centres undefined) | 550 nM | 13 nM

Further compounds by falling IC50 [1], results first:

Row | IC50 [1] | IC50 [2] | SMILES
4 | 30 nM | – | C[C@](Cc1c[nH]c2ccccc12)(NC(=O)OC1C2CC3CC(C2)CC1C3)C(=O)N[C@H](CC(=O)O)Cc1ccccc1 (some centres undefined)
5 | 18 nM | 0.3 nM | O=C(O)C[C@H](Cc1ccccc1)NC(=O)C(=Cc1c[nH]c2ccccc12)NC(=O)OC1C2CC3CC(C2)CC1C3 (some centres undefined)
